Test results published in PMC11279727, “Bioprospecting, Synergistic Antifungal and Toxicological Aspects of the Hydroxychalcones and Their Association with Azole Derivates against Candida spp. for Treating Vulvovaginal Candidiasis” (Pharmaceutics, 2024).
≈ marks a conversion by molar mass, not a printed value.

Columns and labels:
C. albicans ATCC 90028 = assay: Therapeutic efficacy in Galleria mellonella infected with C. albicans; assay type: in vivo; conditions: for efficacy in the antifungal activity: substances alone at MIC values and LCs, infected larvae
[1] = tested on: Candida albicans ATCC 90028; assay: Combinatorial antifungal activity (checkerboard); assay type: cell-based; conditions: ATCC90028, C. albicans, drug alone in checkerboard, read-out: MIC80 (individual)
Description: (§1) Candida albicans ATCC 90028, Candida tropicalis ATCC 750, and Candida krusei ATCC 6258 were used. These species were selected for these assays because C. albicans is the most prevalent etiological agent in fungal infections caused by the genus Candida, and C. tropicalis is the most frequent non-albicans species. C. krusei was used to represent the species most resistant to azole drugs. Thus, 2-HC and 3′-HC were combined with FCZ and CTZ and associated with each other. Their combinatorial antifungal activity was determined through the checkerboard method using 96-well microplates, according to Bellio et al. (2021). […] Microplates were incubated at 37 °C for 24 h. […] The negative control was only the culture medium, and the positive control was composed of microorganisms and the culture medium. […] From this, it was calculated the fractional inhibitory concentration (FIC) and the fractional inhibitory concentration index (FICI) of each well of the interface as follows: […]

Candida krusei ATCC 6258 [2] = assay: Combinatorial antifungal activity (checkerboard); assay type: cell-based; conditions: Pichia kudriavzevii, ATCC6258; C. krusei, drug alone in checkerboard; read-out: MIC80 (individual)
Description: as §1

[3] = tested on: Candida tropicalis ATCC 750; assay: Combinatorial antifungal activity (checkerboard); assay type: cell-based; conditions: drug alone in checkerboard; for MIC80 (individual): C. tropicalis; for MIC80: Candida tropicalis, ATCC750, C. tropicalis, read-out: MIC80 (individual)
Description: as §1

[4] = tested on: Candida albicans ATCC 90028; assay: In vitro susceptibility, CLSI M27-A3 broth microdilution (MIC/MFC); assay type: cell-based; conditions: for MFC / MIC50: ATCC90028, C. albicans ATCC 90028; for MIC: ATCC90028, C. albicans ATCC 90028, 37 °C 24 h
Experimental: (§2) Susceptibility tests were performed according to the M27-A3 protocol proposed by the Clinical & Laboratory Standards Institute (CLSI) (2008). Briefly, 2-HC and 3′-HC were solubilized in dimethyl sulfoxide at 12.500 g/L and stored at −80 °C. […] The final concentration of 2-HC and 3′-HC in the RPMI medium was 0.24–125.0 mg/L. Dilutions of the compounds were performed in a 96-well microplate at a total volume of 100 μL/well. Fungal suspensions were prepared in 0.85% NaCl and were adjusted to a final concentration of 5 × 10^3 cells/mL. Then, 100 μL of the fungal suspension was added to all wells. Microplates were incubated at 37 °C for 24 h. […] Minimal inhibitory concentration (MIC) was considered the lowest concentration of the drug that inhibited the visible growth of yeast. […] Samples were processed in triplicate, and each experiment was carried out in triplicate.

Candida krusei ATCC 6258 [5] = assay: as above; assay type: cell-based; conditions: Pichia kudriavzevii, ATCC6258; for MFC / MIC50: C. krusei ATCC 6258; for MIC: C. krusei ATCC 6258, 37 °C 24 h
Experimental: as §2

[6] = tested on: Candida glabrata ATCC 90030; assay: as above; assay type: cell-based; conditions: Nakaseomyces glabratus, ATCC90030; for MFC: C. glabrata ATCC 90030; for MIC: C. glabrata ATCC 90030, 37 °C 24 h
Experimental: as §2

[7] = tested on: Candida parapsilosis ATCC 22019; assay: as above; assay type: cell-based; conditions: Lodderomyces parapsilosis, ATCC22019; for MFC: C. parapsilosis ATCC 22019; for MIC: C. parapsilosis ATCC 22019, 37 °C 24 h
Experimental: as §2

[8] = tested on: Candida tropicalis ATCC 750; assay: as above; assay type: cell-based; conditions: for MFC / MIC50: ATCC750, C. tropicalis ATCC 750; for MIC: ATCC750, C. tropicalis ATCC 750, 37 °C 24 h
Experimental: as §2

[9] = In vitro cytotoxicity (resazurin, 72 h); conditions: human
Experimental: (§3) Cytotoxicity assays were performed on the C33A cell line (uterine cervical carcinoma epithelium) obtained from the ATCC (Manassas, VA, USA). 5 × 10^4 cells/well were added using RPMI medium with 10% fetal bovine serum into 96-well plates. Cells were incubated at 36.5 °C with 5% CO2 for 24 h to form a cell monolayer. 2-HC and 3′-HC were analyzed in range concentrations from 0.1–75 μg/mL. In combinations, 2-HC and 3′-HC were analyzed from 0.48–31.25 mg/L and 0.48–62.5 mg/L. Cells were exposed for 72 h, and after, cytotoxicity was assessed by adding 100 μL of resazurin (50 μM) and measured by a microplate reader at 570 nm–600 nm. A negative control with untreated cells (100% living cells) and a positive control (DMSO 40% to induce cell death) were also used. The results were evaluated in triplicate independent. […] Selective index (SI) was calculated using SI=IC50/MIC50 .

[10] = tested on: C33A cell line (uterine cervical carcinoma epithelium); assay: In vitro cytotoxicity (resazurin, 72 h); conditions: Homo sapiens, C-33-A, 72 h
Experimental: as §3

[11] = tested on: Paracoccidioides brasiliensis; set-up: method as in PMID 34790584; conditions: cited from earlier work
[12] = tested on: Mycobacterium tuberculosis and Paracoccidioides brasiliensis mixed biofilm; set-up: method as in PMID 34790584; conditions: cited from earlier work
[13] = tested on: Mycobacterium tuberculosis; set-up: method as in PMID 34790584; conditions: cited from earlier work
C33A cell line = conditions: in the concentration ranges tested in the combinations
Experimental: as §3

| Compound | efficacy in the antifungal activity (C. albicans ATCC 90028) | MIC80 [1] [µg/mL] | MIC80 (Candida krusei ATCC 6258 [2]) [µg/mL] | MIC80 (individual) [3] [µg/mL] | MIC80 [3] [µg/mL] | MFC [4] [µg/mL] | MIC50 [4] [µg/mL] | MIC [4] [µg/mL] | MFC (Candida krusei ATCC 6258 [5]) [µg/mL] | MIC50 (Candida krusei ATCC 6258 [5]) [µg/mL] | MIC (Candida krusei ATCC 6258 [5]) [µg/mL] | MFC [6] [µg/mL] | MIC [6] [µg/mL] | MFC [7] [µg/mL] | MIC [7] [µg/mL] | MFC [8] [µg/mL] | MIC50 [8] [µg/mL] | MIC [8] [µg/mL] | viability at 72 h, 9.38 mg/L [9] [%] | IC50 [10] [µg/mL] | other results |
| --- | --- | --- | --- | --- | --- | --- | --- | --- | --- | --- | --- | --- | --- | --- | --- | --- | --- | --- | --- | --- | --- |
| O=C(/C=C/c1ccccc1O)c1ccccc1 [2-HC, 2-hydroxychalcone] | did not demonstrate efficacy | 31.2 | 31.2 | 31.25 | 62.5 | > 125 | 15.6 (≈ 69.7 µM) | 31.3 (≈ 140 µM) | 125 (≈ 557 µM) | 15.6 (≈ 69.7 µM) | 7.8 (≈ 34.8 µM) | > 125 | 15.6 (≈ 69.6 µM) | 15.6 (≈ 69.6 µM) | 7.8 (≈ 34.8 µM) | > 125 | 7.81 (≈ 34.8 µM) | 31.3 (≈ 140 µM) | > 80 | 13 | – |
| O=C(/C=C/c1ccccc1)c1cccc(O)c1 [3′-HC, 3′-hydroxychalcone] | did not demonstrate efficacy | 31.2 | 15.6 | 31.25 | 62.5 | > 125 | 15.6 (≈ 69.7 µM) | 31.3 (≈ 140 µM) | 31.3 (≈ 140 µM) | 7.81 (≈ 34.8 µM) | 7.8 (≈ 34.8 µM) | 31.3 (≈ 140 µM) | 7.8 (≈ 34.8 µM) | 31.3 (≈ 140 µM) | 15.6 (≈ 69.6 µM) | 125 (≈ 557 µM) | 7.81 (≈ 34.8 µM) | 31.3 (≈ 140 µM) | > 80 | 11.9 | MIC [11]: 0.97 µg/mL (≈ 4.33 µM); biofilm degradation [12]: above 50%; MIC [13]: 7.8 µg/mL (≈ 34.8 µM) |
| C[C@@H]1[C@H](O)[C@@H](C)/C=C/C=C/C=C/C=C/C=C/C=C/C=C/[C@H](O[C@@H]2O[C@H](C)[C@@H](O)[C@H](N)[C@@H]2O)C[C@@H]2O[C@](O)(C[C@@H](O)C[C@@H](O)[C@H](O)CC[C@@H](O)C[C@@H](O)CC(=O)O[C@H]1C)C[C@H](O)[C@H]2C(=O)O [AMB, amphotericin B, reference compound] | – | – | – | – | – | 1 (≈ 1.08 µM) | – | 0.2 (≈ 0.216 µM) | 1 (≈ 1.08 µM) | – | 0.1 (≈ 0.108 µM) | 0.5 (≈ 0.541 µM) | 0.4 (≈ 0.433 µM) | 0.3 (≈ 0.325 µM) | 0.1 (≈ 0.108 µM) | 1 (≈ 1.08 µM) | – | 0.05 (≈ 0.0541 µM) | – | – | – |
| Clc1ccccc1C(c1ccccc1)(c1ccccc1)n1ccnc1 [CTZ, clotrimazole, reference compound] | – | 0.03 | 0.13 | – | 0.03 | > 4 | – | 0.01 (≈ 0.029 µM) | > 4 | – | 0.06 (≈ 0.174 µM) | > 2 | 0.004 (≈ 0.0116 µM) | 0.1 (≈ 0.29 µM) | 0.03 (≈ 0.087 µM) | > 4 | – | 0.01 (≈ 0.029 µM) | – | – | cytotoxicity (C33A cell line): did not present cytotoxicity |
| OC(Cn1cncn1)(Cn1cncn1)c1ccc(F)cc1F [FCZ, Fluconazole, reference compound] | – | 0.5 | 32 | – | 0.5 | > 64 | – | 0.25 (≈ 0.816 µM) | 128 (≈ 418 µM) | – | 32 (≈ 104 µM) | > 64 | 0.5 (≈ 1.63 µM) | 2 (≈ 6.53 µM) | 1 (≈ 3.27 µM) | > 64 | – | 0.5 (≈ 1.63 µM) | – | – | health indexes vs infection control group (C. albicans ATCC 90028; larvae infected with C. albicans ATCC 90028, all doses, FCZ 350 mg/L): statistically different from the infection control group; survival curves vs infection control group (C. albicans ATCC 90028; larvae infected with C. albicans ATCC 90028, treated 1 h after infection, five days, FCZ 350 mg/L): statistically different from the infection control group; cytotoxicity (C33A cell line): did not present cytotoxicity |
